Assay results taken from PMC11770821, “Pharmacokinetics and pharmacodynamics of an innovative psychedelic N,N-dimethyltryptamine/harmine formulation in healthy participants: a randomized controlled trial” (International Journal of Neuropsychopharmacology, 2025).

Key:
[1] = tested on: healthy male volunteers; experiment: Undesired drug effects / adverse events questionnaire (y/n and VAS 0–100); assay type: in vivo, human
Procedure: (§1) The participants were monitored with regard to AEs throughout the experiment by the study physician, including questionnaire-based assessments (VAS, 0-100 or y/n) of physical and mental discomfort, breathing difficulties, racing heartbeat, chest or abdominal pains, unpleasant body sensations/muscle pain, headache, nausea, vomiting, and fainting at baseline (−105), 0, 30, 60, 120, 240, and 300 minutes after DMT/placebo administration. Vital signs (systolic/diastolic blood pressure [DBP], heart rate, body temperature [BT]) were assessed using a semiautomatic blood pressure and oral temperature recording device throughout the study at baseline (−45), 0, 30, 120, 150, 210, and 270 minutes after the first DMT/placebo administration.

[2] = tested on: healthy male volunteers; settings: in vivo
Procedure: as §1

[3] = 180 min after first intranasal DMT/placebo administration
[4] = 240 min after first intranasal DMT/placebo administration
[5] = 300 min after first intranasal DMT/placebo administration
[6] = −105 min (baseline) relative to first intranasal DMT/placebo administration

## COc1ccc2c(c1)[nH]c1c(C)nccc12 [Harmine, harmine]
[1]; [3]
  Heart racing, mean intensity [0–100] (SD): 1 (0)
  Heart racing, number of participants reporting: 1
  Muscle ache, mean intensity [0–100] (SD): 16 (14)
  Muscle ache, number of participants reporting: 4
  Nausea, mean intensity [0–100] (SD): 1 (0)
  Nausea, number of participants reporting: 1
  Psychological distress, mean intensity [0–100] (SD): 9 (0)
  Psychological distress, number of participants reporting: 1
  Somatic distress, mean intensity [0–100] (SD): 13 (3)
  Somatic distress, number of participants reporting: 4
  Stomach ache, mean intensity [0–100] (SD): 0 (0)
  Stomach ache, number of participants reporting: 0
  Vomiting, mean intensity [0–100] (SD): 0 (0)
  Vomiting, number of participants reporting: 0
[1]; [4]
  Breathing difficulty, mean intensity [0–100] (SD): 6 (0)
  Breathing difficulty, number of participants reporting: 1
  Chest pain, mean intensity [0–100] (SD): 1 (0)
  Chest pain, number of participants reporting: 1
  Fainting, mean intensity [0–100] (SD): 0 (0)
  Fainting, number of participants reporting: 0
  Head ache, mean intensity [0–100] (SD): 27 (0)
  Head ache, number of participants reporting: 1
  Heart racing, mean intensity [0–100] (SD): 3 (0)
  Heart racing, number of participants reporting: 1
  Muscle ache, mean intensity [0–100] (SD): 21 (5)
  Muscle ache, number of participants reporting: 3
  Nausea, mean intensity [0–100] (SD): 2 (0)
  Nausea, number of participants reporting: 1
  Psychological distress, mean intensity [0–100] (SD): 3 (1)
  Psychological distress, number of participants reporting: 2
  Somatic distress, mean intensity [0–100] (SD): 16 (12)
  Somatic distress, number of participants reporting: 4
  Stomach ache, mean intensity [0–100] (SD): 32 (44)
  Stomach ache, number of participants reporting: 2
  Vomiting, mean intensity [0–100] (SD): 0 (0)
  Vomiting, number of participants reporting: 0
[1]; [5]
  Breathing difficulty, mean intensity [0–100] (SD): 3 (0)
  Breathing difficulty, number of participants reporting: 1
  Chest pain, mean intensity [0–100] (SD): 0 (0)
  Chest pain, number of participants reporting: 0
  Fainting, mean intensity [0–100] (SD): 0 (0)
  Fainting, number of participants reporting: 0
  Head ache, mean intensity [0–100] (SD): 0 (0)
  Head ache, number of participants reporting: 0
  Heart racing, mean intensity [0–100] (SD): 49 (0)
  Heart racing, number of participants reporting: 1
  Muscle ache, mean intensity [0–100] (SD): 9 (11)
  Muscle ache, number of participants reporting: 2
  Nausea, mean intensity [0–100] (SD): 2 (1)
  Nausea, number of participants reporting: 2
  Psychological distress, mean intensity [0–100] (SD): 70 (0)
  Psychological distress, number of participants reporting: 1
  Somatic distress, mean intensity [0–100] (SD): 12 (5)
  Somatic distress, number of participants reporting: 3
  Stomach ache, mean intensity [0–100] (SD): 2 (0)
  Stomach ache, number of participants reporting: 1
  Vomiting, mean intensity [0–100] (SD): 0 (0)
  Vomiting, number of participants reporting: 0
[1]; in vivo
  overall safety and tolerability of drug-induced AEs: mild and well tolerated
[1]; [6]
  Breathing difficulty, mean intensity [0–100] (SD): 12 (15)
  Breathing difficulty, number of participants reporting: 2
  Chest pain, mean intensity [0–100] (SD): 0 (0)
  Chest pain, number of participants reporting: 0
  Fainting, mean intensity [0–100] (SD): 0 (0)
  Fainting, number of participants reporting: 0
  Head ache, mean intensity [0–100] (SD): 8 (7)
  Head ache, number of participants reporting: 3
  Heart racing, mean intensity [0–100] (SD): 9 (6)
  Heart racing, number of participants reporting: 3
  Muscle ache, mean intensity [0–100] (SD): 11 (9)
  Muscle ache, number of participants reporting: 5
  Nausea, mean intensity [0–100] (SD): 6 (0)
  Nausea, number of participants reporting: 1
  Psychological distress, mean intensity [0–100] (SD): 13 (8)
  Psychological distress, number of participants reporting: 4
  Somatic distress, mean intensity [0–100] (SD): 17 (12)
  Somatic distress, number of participants reporting: 7
  Stomach ache, mean intensity [0–100] (SD): 12 (15)
  Stomach ache, number of participants reporting: 2
  Vomiting, mean intensity [0–100] (SD): 0 (0)
  Vomiting, number of participants reporting: 0
[2]
  change of cardiovascular parameters: no relevant changes
